In patent publication US7637980B2, “Method of increasing photosynthesis in plants comprising an exposure thereof to lipochitooligosaccharides and compositions therefor” (McGill University, priority 1999, dated 2009):

Assays:
Type in all cases: in vivo
soybean (cv Bayfield) = test: Photosynthesis of soybean after LCO foliar spray, greenhouse
Description: Soybean (cv Bayfield) seeds were surface sterilized with 2% sodium hypochlorite for 3-4 minutes, washed with several changes of sterile distilled water and germinated in plastic trays containing sterile vermiculite. Seedlings at the two-leaf stage, about seven days of planting, were transplanted into 15 cm plastic pots containing promix (Premier Brands Inc., New Rochelle, N.Y., USA). Pots were placed in a greenhouse maintained at 25±2° C. with a day/night cycle of 16/8 h. Plants were watered as required.
Concentrations of LCO (10^−6 M-10^−12 M) were made with distilled water containing 0.02% Tween 20. A control treatment, containing 0.02% Tween 20, but no LCO was also applied. Since the rates of growth and development differed among the plant species used in the experiments, spray treatment was conducted at different times after planting In general, the spray was applied when the plants were big enough to allow easy measurements of leaf photosynthetic rates. The following are the ages of the plants when the sprays were conducted: soybean 21 days after planting (DAP), corn 25 DAP, rice 45 DAP, melon (35 DAP) and canola 30 DAP. The plants were sprayed with LCO solutions until dripping. The sprays were applied with an atomizer (Nalgene, USA). Each plant required 2-3 mL of spray solution. Each treatment was replicated at least five times and organized on the green house bench in a randomized complete block design. Each experiment (with each crop species) was repeated at least twice.
Photosynthesis was recorded every 24 h using a Li-Cor 6400 portable photosynthesis system (Li-Cor Inc., Lincoln, Neb., USA) for 6 days. In the case of soybean the photosynthesis in the second nodal leaf from the top was recorded while in the other species used in the photosynthetic rate was measured for the top-most fully expanded leaf. Soybean plants were harvested after seven days of LCO treatment and dried at 80° C. for 48 h. Data were analyzed with the Statistical Analysis System (SAS Inc., N.C., USA). Percent increase in photosynthesis over the control was calculated.

soybean = test: Foliar spray of LCO on yield of soybean (2000 cropping season); conditions: for Seed yield/plant / Seed yield: 0% seed moisture; for Seed yield: assuming 500,000 plants per ha
Description: LCO 10^−6 M improved the yield by about 60%. The increase in yield was due to the increase in the number of pods/plant. The 100-seed weight was not increased by LCO spray during the 2000 field season. Also of note, the LCO application in the field experiments in year 2000 were by spraying whole plots, as opposed to individual plants (1999). Thus, the LCO effects described in the present invention are also observable when using large production application methods.

Grapes (cv De Chaunac) = test: Photosynthesis of field-grown grape after LCO spray
Description: These experiments were conducted at the horticultural research facility of McGill University, Ste-Anne-de-Bellevue, Quebec, Canada during July 2000. LCO of different concentrations (10^−8, and 10^−10M) were prepared as described above. Branches of apple (cv Empire) and Grapes (cv De Chaunac) were sprayed with LCO and the photosynthesis was observed every 24 h for five days with a Li-Cor 6400 portable photosynthesis system (Li-Cor Inc., USA). Each treatment was applied to three branches from the same plant. Care was taken to ensure that the branches were on the same level and orientation. Part of each branch was sprayed with LCO and the remaining part served as a control. The control portion of the branch was sprayed with distilled water containing the same amount of Tween 20 as the LCO treatment solution. Observations were taken on 15 leaves per replicate for each treatment. For both apple and grape the entire procedure was repeated twice on two different plants.

corn (Pioneer 3921) = test: Photosynthesis of field-grown corn after LCO spray
Description: Single row corn plots (Pioneer 3921) were established during the 1999 and 2000 cropping seasons. The rows were 75 cm apart and their was an average of 20 cm between plants. The plants were sprayed at 40 DAP. Photosynthetic rates were recorded each day for 5 days after spray application. However, multiple sprays of LCO on corn were not possible due to limitations of LCO supplies, and because only single row plots were used yields were not recorded. As with the indoor experiments, photosynthetic readings were taken every day for five days after the application of LCO. For soybean additional developmental and agronomic data were collected. The first harvest was conducted at 25 days after the first spray treatment. Five plants were harvested from each plot and the following growth variables were analyzed: plant height, number of branches, number of leaves, leaf area, number of flower clusters, number of pods, number of nodules, dry weights of leaves, stem and roots. The final harvest was conducted after physiological maturity of the plants (Fehr et al., 1971); at this time the remaining fifteen treated plants from each plot were harvested and data on number of branches, number of pods, number of seeds and grain yield per plant was collected.

Nod Bj V (C18:1, MeFeu) showed a photosynthesis (soybean (cv Bayfield); 10^−6 M, day 1 after treatment) of 14.9 μmol m^−2 sec^−1, a photosynthesis (soybean (cv Bayfield); 10^−6 M, day 2 after treatment) of 12.1 μmol m^−2 sec^−1 and a photosynthesis (soybean (cv Bayfield); 10^−6 M, day 4 after treatment) of 16.2 μmol m^−2 sec^−1. For the same substance, the photosynthesis (soybean (cv Bayfield); 10^−6 M, day 5 after treatment) was 16.7 μmol m^−2 sec^−1, the photosynthesis (soybean (cv Bayfield); 10^−6 M, day 6 after treatment) was 13.1 μmol m^−2 sec^−1 and the photosynthesis (soybean (cv Bayfield); 10^−7 M, day 1 after treatment) was 12.1 μmol m^−2 sec^−1. The photosynthesis (soybean (cv Bayfield); 10^−7 M, day 2 after treatment) was 9.1 μmol m^−2 sec^−1, the photosynthesis (soybean (cv Bayfield); 10^−7 M, day 4 after treatment) was 12.9 μmol m^−2 sec^−1 and the photosynthesis (soybean (cv Bayfield); 10^−7 M, day 5 after treatment) was 14.1 μmol m^−2 sec^−1. It also gave a photosynthesis (soybean (cv Bayfield); 10^−7 M, day 6 after treatment) of 11.1 μmol m^−2 sec^−1, a photosynthesis (soybean (cv Bayfield); 10^−8 M, day 1 after treatment) of 13.8 μmol m^−2 sec^−1 and a photosynthesis (soybean (cv Bayfield); 10^−8 M, day 2 after treatment) of 8.1 μmol m^−2 sec^−1. It also gave a photosynthesis (soybean (cv Bayfield); 10^−8 M, day 4 after treatment) of 12.3 μmol m^−2 sec^−1, a photosynthesis (soybean (cv Bayfield); 10^−8 M, day 5 after treatment) of 16.4 μmol m^−2 sec^−1 and a photosynthesis (soybean (cv Bayfield); 10^−8 M, day 6 after treatment) of 10.3 μmol m^−2 sec^−1. It also gave a photosynthesis (soybean (cv Bayfield); 10^−9 M, day 1 after treatment) of 15.8 μmol m^−2 sec^−1, a photosynthesis (soybean (cv Bayfield); 10^−9 M, day 2 after treatment) of 8.4 μmol m^−2 sec^−1 and a photosynthesis (soybean (cv Bayfield); 10^−9 M, day 4 after treatment) of 15.7 μmol m^−2 sec^−1. It also gave a photosynthesis (soybean (cv Bayfield); 10^−9 M, day 5 after treatment) of 17.5 μmol m^−2 sec^−1, a photosynthesis (soybean (cv Bayfield); 10^−9 M, day 6 after treatment) of 11.2 μmol m^−2 sec^−1 and a photosynthesis (soybean (cv Bayfield); 10^−10 M, day 1 after treatment) of 13.6 μmol m^−2 sec^−1. The photosynthesis (soybean (cv Bayfield); 10^−10 M, day 2 after treatment) was 8.7 μmol m^−2 sec^−1, the photosynthesis (soybean (cv Bayfield); 10^−10 M, day 4 after treatment) was 14.6 μmol m^−2 sec^−1 and the photosynthesis (soybean (cv Bayfield); 10^−10 M, day 5 after treatment) was 16.9 μmol m^−2 sec^−1. The photosynthesis (soybean (cv Bayfield); 10^−10 M, day 6 after treatment) was 11.2 μmol m^−2 sec^−1, the photosynthesis (soybean (cv Bayfield); 10^−11 M, day 1 after treatment) was 14.0 μmol m^−2 sec^−1 and the photosynthesis (soybean (cv Bayfield); 10^−11 M, day 2 after treatment) was 8.7 μmol m^−2 sec^−1. For the same substance, the photosynthesis (soybean (cv Bayfield); 10^−11 M, day 4 after treatment) was 17.4 μmol m^−2 sec^−1, the photosynthesis (soybean (cv Bayfield); 10^−11 M, day 5 after treatment) was 17.9 μmol m^−2 sec^−1 and the photosynthesis (soybean (cv Bayfield); 10^−11 M, day 6 after treatment) was 12.5 μmol m^−2 sec^−1. It also gave a photosynthesis (soybean (cv Bayfield); 10^−12 M, day 1 after treatment) of 15.0 μmol m^−2 sec^−1, a photosynthesis (soybean (cv Bayfield); 10^−12 M, day 2 after treatment) of 10.3 μmol m^−2 sec^−1 and a photosynthesis (soybean (cv Bayfield); 10^−12 M, day 4 after treatment) of 16.9 μmol m^−2 sec^−1. For the same substance, the photosynthesis (soybean (cv Bayfield); 10^−12 M, day 5 after treatment) was 17.0 μmol m^−2 sec^−1, the photosynthesis (soybean (cv Bayfield); 10^−12 M, day 6 after treatment) was 12.0 μmol m^−2 sec^−1 and the “increase in photosynthetic rate” value (soybean (cv Bayfield); LCO spray, greenhouse, on an average) was 50%. The 100-seed weight (soybean; LCO 10^−6 M) was 17.4 g, the Pod weight/plant (soybean; LCO 10^−6 M) was 31.4 g and the Pods/plant (soybean; LCO 10^−6 M) was 46.8. The Seeds/plant (soybean; LCO 10^−6 M) was 118.0, the Seed yield/plant (soybean; LCO 10^−6 M) was 21.0 g and the Seed yield (soybean; LCO 10^−6 M) was 10.5 t/ha. For the same substance, the 100-seed weight (soybean; LCO 10^−8 M) was 17.8 g, the Pod weight/plant (soybean; LCO 10^−8 M) was 24.1 g and the Pods/plant (soybean; LCO 10^−8 M) was 39.1. It also gave a Seeds/plant (soybean; LCO 10^−8 M) of 96.4, a Seed yield/plant (soybean; LCO 10^−8 M) of 16.2 g and a Seed yield (soybean; LCO 10^−8 M) of 8.1 t/ha. For the same substance, the 100-seed weight (soybean; LCO 10^−10 M) was 18.1 g, the Pod weight/plant (soybean; LCO 10^−10 M) was 29.1 g and the Pods/plant (soybean; LCO 10^−10 M) was 47.7. The Seeds/plant (soybean; LCO 10^−10 M) was 117.7, the Seed yield/plant (soybean; LCO 10^−10 M) was 21.8 g and the Seed yield (soybean; LCO 10^−10 M) was 10.9 t/ha. The 100-seed weight (soybean; LCO spray, 2000 field season) was “not increased”, the stomatal conductance (Grapes (cv De Chaunac); 10^−10 M, three days after treatment) was “increase” and the photosynthetic rates (Grapes (cv De Chaunac); greatest three days after treatment with 10^−10 M) was “increases”. For the same substance, the Ci (corn (Pioneer 3921); field grown plants) was “no such effect” and the “increase of photosynthetic rate, maximum” value (corn (Pioneer 3921); field, two days after treatment application) was “approximately 10%”.
